Source: patent US20240409899A1, “PRODUCTION OF HEPATOCYTES” (Cambridge Enterprise Limited (GB/GB), priority 2021, published 2024)

Legend:
FoP-Heps [1] = experiment: CYP3A4 activity (P450 Glo) in FoP-Heps treated with exogenous nuclear receptor ligands; conditions: for effect on CYP3A4 activity: vs untreated control, FoP-Heps with 3TFs plus the ligand's nuclear receptor (AR for testosterone, RORc for desmosterol)
Experimental: hPSCs were dissociated into single cells following incubation with StemPro Accutase (Thermo Fisher) for 5 minutes at 37° C. and seeded at a density of 40-50.000 cells/cm2 in E8 medium supplemented with 10 μM ROCK Inhibitor Y-27632 (Selleckchem). E8 medium was replenished the following day. Following 48 h, initial induction of the transgenes was achieved by incubation in E6 medium (E8 without growth factors) supplemented with […] doxycycline (dox) for 24 h. Cells were then maintained in Hepatozyme complete medium supplemented with […] dox for the remaining duration of the protocol. Medium was replenished every day for the next 4 days, and every other day here after. For specific experiments, cell lines were treated with 100 nM of desmosterol, testosterone or […] (E2) from day 2 of forward programming. All ligands were purchased from Sigma-Aldrich and reconstituted in ethanol. For 3D cultures, forward programmed cells were embedded in Matrigel Growth Factor Reduced Basement Membrane Matrix, Phenol Red-free (Corning) at day 15 or day 20 and cultured for 5 days or 10 days, respectively. Cells were dissociated with Hank's based cell dissociation buffer (Gibco) for 20 minutes at 37° C., resuspended in Matrigel and seeded in 40-50 μL domes in Hepatozyme complete medium supplemented with […] dox.
Measurement of CYP3A4 enzymatic activity was performed using the P450 Glo kit (Promega). Cells were incubate with 1:1000 luciferin-IPA in Hepatozyme complete for 1 h at 37° C. Supernatant was mixed with detection reagent in a 1:1 ratio and incubated at RT for 20 minutes in Greiner white 96 well microplates (Sigma Aldrich). Luminescence was measured in triplicate on a GloMax plate reader. Hepatozyme complete medium was used as background control. Relative light units were normalised for background, volume and average total number of cells obtained after differentiation.

FoP-Heps [2] = experiment: Fatty acid treatment, cell viability (Presto Blue) in 3D FoP-Heps; format: cell-based, human; conditions: 0.25 mM conjugated with BSA, 7 days, 3D culture from day 20; 4TF FoP-Heps; normalised against BSA control
Experimental: (§1) Forward programmed cells were embedded in 3D from day 20 and cultured for 7 days in Hepatozyme complete medium supplemented with either BSA (control), or oleic acid (0.25 mM) or palmitic acid (0.25 mM) conjugated with BSA. Intracellular lipid accumulation was detected by incubating cells with 1 μl/ml Bodipy (Thermo scientific) for 30 minutes, followed by DAPI (Hoechst) diluted 1:10.000 in PBS for 30 minutes and imaged on a Zeiss LSM 700 confocal microscope.
(§2) Cell viability was determined by incubating cells with 1:10 Presto Blue reagent (Invitrogen) in Hepatozyme complete medium at 37° C. for 4 hours. Fluorescence was measured using the EnVision plate reader with an excitation emission of 560 nm/590 nm.

FoP-Heps [3] = experiment: APAP toxicity, cell viability (Presto Blue) in 3D FoP-Heps; format: cell-based, human; conditions: 25 mM for 48 h (day 18 to day 20), 3D cultures; 4TF FoP-Heps; normalised against untreated
Experimental: The hepatotoxicity of acetaminophen (APAP) was tested by incubating forward programmed cells cultured in 3D from day 15 in Hepatozyme complete medium supplemented with 25 mM acetaminophen (R&D) for 48 h hours (day 18 to day 20) after which cell viability was determined.
as §2

FoP-Heps [4] = experiment: Fatty acid treatment, intracellular lipid accumulation (BODIPY staining) in 3D FoP-Heps; format: cell-based, human; conditions: 0.25 mM conjugated with BSA, 7 days, 3D culture from day 20; 4TF eFoP- and iFoP-Heps; BSA control
Experimental: as §1

[5] = 100 nM ligand from day 2, day 20 of forward programming

Question: For `CC(C)=CCC[C@@H](C)[C@H]1CC[C@H]2[C@@H]3CC=C4C[C@@H](O)CC[C@]4(C)[C@H]3CC[C@]12C` [desmosterol], which “effect on CYP3A4 activity” value (FoP-Heps [1]; [5]) is on record?
Answer: The value was “no effect”.

Question: For `CCCCCCCCCCCCCCCC(=O)O` [PA, palmitic acid], which “cell viability (lipotoxicity)” value (FoP-Heps [2]) is on record?
Answer: Its value is “reduction in cell viability”.

Question: What does the source list for β-estradiol [p3-estradiol]?
Answer: increase in CYP3A4 activity (FoP-Heps [1]; 100 nM ligand from day 2, day 20 of forward programming, normalised to untreated control, FoP-Heps with 3TFs plus the ligand's nuclear receptor (ERα)): 3 fold; increase in CYP3A4 activity in 3TFs FoP-Heps (FoP-Heps [1]; 3TFs FoP-Heps without overexpressed nuclear receptor, 100 nM ligand): not observed

Question: For `C[C@]12CC[C@H]3[C@@H](CCC4=CC(=O)CC[C@@]43C)[C@@H]1CC[C@@H]2O` [testosterone], which “effect on CYP3A4 activity” value (FoP-Heps [1]; [5]) is on record?
Answer: Its value is “significantly decreased”.

Question: Which “reduction in cell viability” value (FoP-Heps [3]) does the source give for `CC(=O)Nc1ccc(O)cc1` [acetaminophen] here?
Answer: Its value is 50%.

Question: For `CCCCCCCC/C=C\CCCCCCCC(=O)O` [OA, oleic acid], which “accumulation of lipids (BODIPY staining)” value (FoP-Heps [4]) is on record?
Answer: The value was “strong accumulation of lipids”.
